Patent US6531468B2, “Diazabicyclooctane derivatives and therapeutic uses thereof” (Pfizer Inc, priority 2000, dated 2003)
Where a name gives a salt, the structure may show the parent alone.

melting point: 154 to 156 °C
SMILES: Fc1ccc(N2CC3CCC2CN3)cc1 (stereo not shown) (as salt: salt)
